One data set deals with sodium channel. The data set is described as follows: Guanidine influx assay (14C-guanidine radiotracer flux, in vitro). Particulars: guanidine influx assay using a known cell line that expresses a sodium channel. The class given is cell-based, human or rat. Put shortly: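 Cells (human/rat Nav, endogenous or recombinant), ~100,000/well, 20-24 h 37 °C/5% CO2. Wash LNHBSS (150 mM choline Cl, HEPES, glucose). Add cpd + aconitine/14C-guanidine mix, RT. Wash, dry, scintillation count. IC50: 4-PL fit; selectivity as IC50 ratio vs reference channel, e.g. Nav1.5.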

The target of the next data set is CYP3A4 (Homo sapiens, UniProt P08684). The data set is described as follows: Cytochrome P450 (CYP450) Inhibition Assay, CYP3A4 (Vivid fluorescence, BOMCC substrate). Particulars: human, P450 Baculosomes (recombinant CYP3A4), probe BOMCC (Vivid substrate).

What is called IC50 is the concentration that inhibits the measured activity by half. Broadly, the melting point is the temperature of the solid-liquid transition. In general, inhibition refers to the share of the control response that was lost under treatment.

CYP3A4, sequence (P08684 whole entry): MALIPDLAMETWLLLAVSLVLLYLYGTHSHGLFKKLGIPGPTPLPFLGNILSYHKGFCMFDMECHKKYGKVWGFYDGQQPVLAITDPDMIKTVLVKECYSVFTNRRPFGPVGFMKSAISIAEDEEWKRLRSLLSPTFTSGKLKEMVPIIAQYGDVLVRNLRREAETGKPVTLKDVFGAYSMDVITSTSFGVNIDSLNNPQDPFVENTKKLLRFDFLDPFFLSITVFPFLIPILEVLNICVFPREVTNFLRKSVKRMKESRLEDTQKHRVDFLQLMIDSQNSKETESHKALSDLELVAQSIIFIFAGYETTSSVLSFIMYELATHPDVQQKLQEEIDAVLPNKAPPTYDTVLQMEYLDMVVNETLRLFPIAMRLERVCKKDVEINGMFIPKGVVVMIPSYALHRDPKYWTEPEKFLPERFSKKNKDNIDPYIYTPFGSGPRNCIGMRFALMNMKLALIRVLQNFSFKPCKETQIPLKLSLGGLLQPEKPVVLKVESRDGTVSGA

In the case of `O=C1N(CCC(O)C(F)(F)F)c2ccccc2C12COc1cc3c(cc12)CCO3` (stereo not drawn) [Example 14.5, 1′-(4,4,4-trifluoro-3-hydroxybutyl)-5,6-dihydrospiro[benzo[1,2-b:5,4-b′]difuran-3,3′-indol]-2′(1′H)-one], the melting point was 124 to 126 °C. Also, the concentration for half-maximal inhibition (IC50) in the data set with sodium channel was in the range of 100 to 1000 nM. At CYP3A4, the inhibition at 10 µM is more than 50%.

Compound `CC(C)CCNCCCN1C(=O)C2(COc3cc4c(cc32)CCO4)c2ccccc21.Cl` (stereo not drawn) [Example 15.1, 1′-{3-[(3-methylbutyl)amino]propyl}-5,6-dihydrospiro[benzo[1,2-b:5,4-b′]difuran-3,3′-indol]-2′(1′H)-one hydrochloride] showed a melting point of 98 to 101 °C. The IC50 in the data set with sodium channel fell in the range of 1000 to 10000 nM. On CYP3A4, the inhibition at 10 µM is more than 50%.

Compound `CCCCN(C)CCCN1C(=O)C2(COc3cc4c(cc32)CCO4)c2ccccc21.Cl` (stereo not drawn) [Example 15.2, 1′-{3-[butyl(methyl)amino]propyl}-5,6-dihydrospiro[benzo[1,2-b:5,4-b′]difuran-3,3′-indol]-2′(1′H)-one hydrochloride] showed a melting point of 96 to 99 °C. The IC50 with sodium channel fell in the range of 1000 to 10000 nM. The inhibition at 10 µM on CYP3A4 is more than 50%.

`Cl.O=C1N(CCCNCC(F)(F)F)c2ccccc2C12COc1cc3c(cc12)CCO3` (stereo not drawn) [Example 15.3, 1′-{3-[(2,2,2-trifluoroethyl)amino]propyl}-5,6-dihydrospiro[benzo[1,2-b:5,4-b′]difuran-3,3′-indol]-2′(1′H)-one hydrochloride] had a melting point of 124 to 126 °C. In the data set with sodium channel, the IC50 was in the range of 100 to 1000 nM. Also, the inhibition at 10 µM on CYP3A4 is more than 50%.

For the compound `Cl.N#CCCNCCCN1C(=O)C2(COc3cc4c(cc32)CCO4)c2ccccc21` (stereo not drawn) [Example 15.4, 3-{[3-(2′-oxo-5,6-dihydrospiro[benzo[1,2-b:5,4-b′]difuran-3,3′-indol]-1′(2′H)-yl)propyl]amino}propanenitrile hydrochloride], the melting point was 214 to 216 °C. In addition, the IC50 with sodium channel was in the range of 100 to 1000 nM. In addition, the inhibition at 10 µM on CYP3A4 was more than 50%.

As to `CN(C)c1ccc(-c2cccc3c2C2(COc4cc5c(cc42)CCO5)C(=O)N3Cc2ccc(C(F)(F)F)o2)cn1` (stereo not drawn) [Example 16.11, 4′-[6-(dimethylamino)pyridin-3-yl]-1′-{[5-(trifluoromethyl)furan-2-yl]methyl}-5,6-dihydrospiro[benzo[1,2-b:5,4-b′]difuran-3,3′-indol]-2′(1′H)-one], the melting point was 223 to 225 °C. For the same compound, the IC50 with sodium channel was 100 to 1000 nM. Besides, the inhibition at 10 µM at CYP3A4 is more than 50%.

In turn, `CN(C)c1ccc(-c2cccc3c2C2(COc4cc5c(cc42)OCO5)C(=O)N3Cc2ccc(Cl)s2)cn1` (stereo not drawn) [Example 16.12, 1′-[(5-chloro-2-thienyl)methyl]-4′-[6-(dimethylamino)pyridin-3-yl]spiro[furo[2,3-f][1,3]benzodioxole-7,3′-indol]-2′(1′H)-one] yielded a melting point of 215 to 218 °C. The half-inhibitory concentration (IC50) with sodium channel lay within 100 to 1000 nM. Further, at CYP3A4, the inhibition at 10 µM was more than 50%.

In turn, `O=C1N(Cc2ccc(Cl)s2)c2cccc(-c3ccoc3)c2C12COc1cc3c(cc12)OCO3` (stereo not drawn) [Example 16.13, 1′-[(5-chloro-2-thienyl)methyl]-4′-(3-furyl)spiro[furo[2,3-f][1,3]benzodioxole-7,3′-indol]-2′(1′1-1)-one] came in with a melting point of 166 to 168 °C. The IC50 in the data set on sodium channel lay within 100 to 1000 nM. Also, on CYP3A4, the inhibition at 10 µM is more than 50%.

Turning to `CN(C)c1ccc(-c2cccc3c2C2(COc4cc5c(cc42)OCO5)C(=O)N3)cn1` (stereo not drawn) [Example 16.14, 4′-[6-(dimethylamino)pyridin-3-yl]spiro[furo[2,3-f][1,3]benzodioxole-7,3′-indol]-2′(1′H)-one], the melting point is more than 245 °C. Further, the IC50 in the data set with sodium channel was 1000 to 10000 nM. Moreover, on CYP3A4, the inhibition at 10 µM is more than 50%.

Take `CN(C)c1ccc(-c2cccc3c2C2(COc4cc5c(cc42)OCCO5)C(=O)N3Cc2ccccn2)cn1` (stereo not drawn) [Example 16.59, 4′-(6-(dimethylamino)pyridin-3-yl)-1′-(pyridin-2-ylmethyl)-3,7-dihydro-2H-spiro[benzofuro[5,6-b][1,4]dioxine-8,3′-indolin]-2′-one]: the melting point lay in the range of 187 to 188 °C. Also, the 50% inhibitory concentration (IC50) in the data set on sodium channel was 100 to 1000 nM. In addition, the inhibition at 10 µM at CYP3A4 was more than 50%.

With `COc1ccc(-c2cccc3c2C2(COc4cc5c(cc42)OCCO5)C(=O)N3Cc2ccccn2)cc1` (stereo not drawn) [Example 16.60, 4′-(4-methoxyphenyl)-1′-(pyridin-2-ylmethyl)-3,7-dihydro-2H-spiro[benzofuro[5,6-b][1,4]dioxine-8,3′-indolin]-2′-one], the melting point lay in the range of 205 to 206 °C. Also, the IC50 in the data set on sodium channel lay within 1 to 100 nM. Also, the inhibition at 10 µM at CYP3A4 is more than 50%.

Regarding `CN1C(=O)[C@@]2(COc3cc4c(cc32)OCO4)c2c(-c3ccoc3)cccc21` [Example 16.61, (7S)-4′-furan-3-yl-1′-methylspiro[furo[2,3-f][1,3]benzodioxole-7,3′-indol]-2′(1′H)-one], the melting point was in the range of 144 to 145 °C. In the data set on sodium channel, the IC50 lay in the range of 1 to 100 nM. At CYP3A4, the inhibition at 10 µM was more than 50%.

On to `CN1C(=O)[C@]2(COc3cc4c(cc32)OCO4)c2c(-c3ccoc3)cccc21` [Example 16.62, (7R)-4′-furan-3-yl-1′-methylspiro[furo[2,3-f][1,3]benzodioxole-7,3′-indol]-2′(1′H)-one], for which the melting point was 144 to 145 °C. Moreover, the concentration for half-maximal inhibition (IC50) with sodium channel lay within 100 to 1000 nM. For the same compound, the inhibition at 10 µM at CYP3A4 is more than 50%.

On to `COc1ccc(-c2ccc3c(c2)C2(CO3)C(=O)N(Cc3ccc(Cl)s3)c3ccccc32)cn1` (stereo not drawn) [Example 16.88, 1′-[(5-chloro-2-thienyl)methyl]-5-(6-methoxypyridin-3-yl)spiro[1-benzofuran-3,3′-indol]-2′(1′H)-one], for which the melting point was in the range of 60 to 62 °C. Moreover, the IC50 in the data set with sodium channel is 1000 to 10000 nM. Besides, the inhibition at 10 µM on CYP3A4 is more than 50%.

`O=C1N(Cc2ccc(O)cc2)c2ccccc2C12COc1cc3c(cc12)CCO3` (stereo not drawn) [Example 17, 1′-(4-hydroxybenzyl)-5,6-dihydrospiro[benzo[1,2-b:5,4-b′]difuran-3,3′-indol]-2′(1′H)-one] gave a melting point of 226 to 227 °C. For the same compound, the IC50 in the data set on sodium channel is 1 to 100 nM. For the same compound, the inhibition at 10 µM at CYP3A4 is more than 50%.

In turn, `O=C1N(Cc2ccc(O)cc2)c2ccccc2C12COc1cc3c(cc12)OCCO3` (stereo not drawn) [Example 17.1, 1′-(4-hydroxybenzyl)-2,3-dihydrospiro[furo[2,3-g][1,4]benzodioxine-8,3′-indol]-2′(1′H)-one] displayed a melting point of 243 to 244 °C. Also, in the data set with sodium channel, the half-maximal inhibitory concentration (IC50) lay within 1 to 100 nM. Also, the inhibition at 10 µM at CYP3A4 was more than 50%.

In turn, `O=C1N(CCCO)c2ccccc2C12COc1cc3c(cc12)OCCO3` (stereo not drawn) [Example 17.2, 1′-(3-hydroxypropyl)-2,3-dihydrospiro[furo[2,3-g][1,4]benzodioxine-8,3′-indol]-2′(1′H)-one] gave a melting point of 157 to 158 °C. In the data set with sodium channel, the 50% inhibitory concentration (IC50) lay in the range of 1 to 100 nM. Besides, at CYP3A4, the inhibition at 10 µM is less than 50%.

`CCOC(=O)N1C(=O)C2(COc3cc4c(cc32)OCCO4)c2ccccc21` (stereo not drawn) [Example 18, ethyl 2′-oxo-2,3-dihydrospiro[furo[2,3-g][1,4]benzodioxine-8,3′-indole]-1′(2′H)-carboxylate] displayed a melting point of 198 to 200 °C. In the data set on sodium channel, the IC50 is 1 to 100 nM. Moreover, on CYP3A4, the inhibition at 10 µM was less than 50%.

On to `CC(C)(C)OC(=O)N1C(=O)C2(COc3cc4c(cc32)OCO4)c2c(Br)cccc21` (stereo not drawn) [Example 18.1, tert-butyl 4′-bromo-2′-oxospiro[furo[2,3-f][1,3]benzodioxole-7,3′-indole]-1′(2′H)-carboxylate], for which the melting point lay within 154 to 156 °C. Moreover, the IC50 in the data set on sodium channel is 1 to 100 nM. Moreover, the inhibition at 10 µM at CYP3A4 was more than 50%.

The compound `CC(C)(C)OC(=O)N1C(=O)C2(COc3cc4c(cc32)OCCO4)c2ccccc21` (stereo not drawn) [Example 18.2, tert-butyl 2′-oxo-2,3-dihydrospiro[furo[2,3-g][1,4]benzodioxine-8,3′-indole]-1′(2′H)-carboxylate] had a melting point of 171 to 172 °C. For the same compound, the IC50 with sodium channel was in the range of 100 to 1000 nM. In addition, on CYP3A4, the inhibition at 10 µM is less than 50%.

With `CC1(C)O[C@H]2[C@@H](O1)[C@@H](CN1C(=O)C3(COc4cc5c(cc43)OCCO5)c3ccccc31)O[C@@H]1OC(C)(C)O[C@@H]12` (stereo partly drawn) [Example 19, 1′-{[(3aR,5R,5aS,8aS,8bR)-2,2,7,7-tetramethyltetrahydro-3aH-bis[1,3]dioxolo[4,5-b:4′,5′-d]pyran-5-yl]methyl}-2,3-dihydrospiro[furo[2,3-g][1,4]benzodioxine-8,3′-indol]-2′(1′H)-one], the melting point lay within 112 to 118 °C. The half-maximal inhibitory concentration (IC50) in the data set on sodium channel was 1000 to 10000 nM. Further, at CYP3A4, the inhibition at 10 µM was less than 50%.

With `O=C1N(C[C@H]2OC(O)[C@H](O)[C@@H](O)[C@H]2O)c2ccccc2C12COc1cc3c(cc12)OCCO3` (stereo partly drawn) [Example 20, 6-deoxy-6-(2′-oxo-2,3-dihydrospiro[furo[2,3-g][1,4]benzodioxine-8,3′-indol]-1′(2′H)-yl)-D-galactopyranose], the melting point was in the range of 122 to 126 °C. Moreover, in the data set with sodium channel, the IC50 is 1000 to 10000 nM. In addition, on CYP3A4, the inhibition at 10 µM was less than 50%.

With `O=C1N(C2CC2)c2ccccc2C12COc1cc3c(cc12)OCCO3` (stereo not drawn) [Example 21, 1′-cyclopropyl-2,3-dihydrospiro[furo[2,3-g][1,4]benzodioxine-8,3′-indol]-2′(1′H)-one], the melting point lay in the range of 227 to 228 °C. Besides, the IC50 in the data set with sodium channel fell in the range of 1 to 100 nM. In addition, at CYP3A4, the inhibition at 10 µM was less than 50%.

The compound `CC(=O)N1C(=O)C2(COc3cc4c(cc32)OCCO4)c2ccccc21` (stereo not drawn) [Example 22, 1′-acetyl-2,3-dihydrospiro[furo[2,3-g][1,4]benzodioxine-8,3′-indol]-2′(1′H)-one] showed a melting point of 236 to 238 °C. Also, the concentration for half-maximal inhibition (IC50) with sodium channel was in the range of 1 to 100 nM. Besides, at CYP3A4, the inhibition at 10 µM was less than 50%.

Source of the values: patent US8263606B2 (Xenon Pharmaceuticals Inc., priority 2008, dated 2012).
